The source of these data is article PMC13147306 (The Febs Journal, 2025).

Each structure is given as a SMILES string.

In experiment [1] the test system is AthePKS. Briefly: steady-state kinetics, HPLC of product 1b. It is filed as biochemical. The conditions noted are these: read-out: apparent Km; 400 μM malonyl-CoA, 50 mM Tris/HCl pH 7.5, 37 °C.
For experiment [2], the target named is T1, DnrK (Streptomyces peucetius, UniProt Q06528).
T1 sequence (Q06528 1-356): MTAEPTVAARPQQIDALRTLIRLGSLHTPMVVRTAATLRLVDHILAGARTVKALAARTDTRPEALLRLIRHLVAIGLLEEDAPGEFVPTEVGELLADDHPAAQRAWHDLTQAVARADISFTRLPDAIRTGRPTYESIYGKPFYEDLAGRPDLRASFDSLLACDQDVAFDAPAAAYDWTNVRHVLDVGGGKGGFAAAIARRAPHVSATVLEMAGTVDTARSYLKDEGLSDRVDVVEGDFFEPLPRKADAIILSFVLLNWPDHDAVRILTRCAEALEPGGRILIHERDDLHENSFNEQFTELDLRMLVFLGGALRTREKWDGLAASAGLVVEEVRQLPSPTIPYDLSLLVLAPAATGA
Briefly: O-methylation assay, LC-MS/HPLC. It counts as biochemical. The following applies: 0.5 mM substrate, 2 mM SAM, 5 μM enzyme, HEPES-NaOH pH 8, 37 °C, 24 h.

As to `CNc1ccccc1C(=O)SCCNC(=O)CCNC(=O)[C@H](O)C(C)(C)COP(=O)(O)OP(=O)(O)OC[C@H]1O[C@@H](n2cnc3c(N)ncnc32)[C@H](O)[C@@H]1OP(=O)(O)O` [1a, N-methylanthraniloyl-CoA], the Michaelis constant (Km) in experiment [1] was found to be 42.6 µM. Regarding `Cn1c(=O)cc(O)c2ccccc21` [1b, 4-hydroxy-1-methyl-2-quinolone], the “O-methylation assay, LC-MS/HPLC” value in experiment [2] is recorded as “DnrK was still the best‐performing enzyme”. For `O=c1cc(O)c2ccccc2[nH]1` [2b], the “O-methylation assay, LC-MS/HPLC” value in experiment [2] is “it was also active with the other heterocycles 2b, 6b, and 8b”.
